Earlier results on one substance are cited in paper PMC5849076 (Biochemistry, 2018).

The target of one series is DaCld (Dechloromonas aromatica, UniProt Q47CX0).
DaCld, sequence (Q47CX0 35-282): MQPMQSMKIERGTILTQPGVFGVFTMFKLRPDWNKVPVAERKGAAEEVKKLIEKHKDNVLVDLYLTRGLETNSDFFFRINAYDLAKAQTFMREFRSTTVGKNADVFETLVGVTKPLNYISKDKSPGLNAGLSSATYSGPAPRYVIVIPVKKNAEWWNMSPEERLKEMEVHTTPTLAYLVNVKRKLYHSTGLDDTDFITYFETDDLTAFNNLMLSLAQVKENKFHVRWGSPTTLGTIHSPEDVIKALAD

As to chlorite [ClO2^−], at DaCld, the “turnovers prior to irreversible inactivation” value is listed as > 20,000 equivalents of ClO2^− per heme. The number of turnovers in the series with KpCld is given as 6700 ± 300 equivalents ClO2^−/heme.
